What was measured:
in vitro = in vitro ADME; conditions: human
Experimental: The barrier integrity of the CFBE41o− cell line cultured on the Transwell® supports was determined by both TEER (Srinivasan B et aL, 2015, Journal of Laboratory Automation, 20(2): 107-126) and sodium fluorescein transport (Molenda N et al., 2014, PLOS ONE, 9(6): p. e100621). Due to the variation in TEER measurements, sodium fluorescein transport provided a direct measurement of the tight junctions. On day 7 (4 days after cells are transferred to ALI), cells were incubated basolaterally with 1.7 mL KRB buffer and apically with 520 μL of 10 μg/mL sodium fluorescein (in KRB) with or without 16 mM ethylenediaminetetraacetic acid (EDTA). EDTA disrupts the tight junctions of a cell barrier. At 30-minute intervals, 20 μL samples were taken from the basolateral compartment and replaced with fresh KRB. […] The samples were then measured and compared to a standard curve via fluorescent spectroscopy (Tecan® plate reader, Tecan Deutschland GmbH, Germany) at excitation and emission wavelengths of […], respectively. […]
After TOB treatments were nebulised, at 5, 15, 30, 60, 120, 240 and 1440 minutes, 100 μL sample was taken from the basolateral compartment and replaced with fresh MEM media. The sample was then filtered through 4 mm Millex® syringe filters before LC-MS/MS analysis, as described above, to quantify the transport of TOB.

PAO1 biofilm on CFBE41o− = assay: Chronic infection model CFBE41o− and PAO1: bacterial counts; type: cell-based, P. aeruginosa
Experimental: A chronic infection model was developed which cultures P. aeruginosa biofilm on top of the bronchial CF epithelium cells (CFBE41o−) at an air-liquid interface. It is a biologically relevant, 3D model that resembles the infected lungs of CF patients.
To assess the activity and toxicity or formulations, the CFBE41o− cell line was seeded on Transwell® inserts (0.05×10^6) at the liquid-liquid interface (500 μL apical and 1500 μL basolateral) on day 0. On day 3, the apical side media was removed, and the basolateral side was replaced with 500 μL of media. On day 7, the transepithelial electrical resistance (TEER) was measured through adding 500 μL to the apical chamber of one well and replacing the basolateral side with 1500 μL. The transferred biofilm model, described above, was employed to transfer the PAO1 biofilm on top of the CFBE41o− cell line in the apical compartment of the Transwells® on day 7. After 1 h incubation, the supernatant was removed as the biofilm has settled onto the cells.
Using the Aerogen® Pro (vibrating mesh nebuliser) and nebulisation chamber, the treatments were then nebulised on top of the biofilm and CFBE41o− cell layer. TOB as an unformulated solution or loaded in the MO-LCNPs were dosed at 10 μg, which was equivalent to 100 μL of 3.32 mg/mL for unformulated TOB and 2.50 mg/mL for MO-LCNPs loaded with TOB. The treatments were prepared by diluting the stock solution/LCNPs suspension to the required concentration in KRB buffer. Each time the nebuliser was first rinsed with KRB buffer and the Transwell® to be dosed was transfered to a clean 12 well plate. The treatment was nebulised following a 30 second deposition waiting time. After all treatments were dosed, the Transwells® were replaced to their original well that included fresh MEM media supplemented with 1% arginine (500 μL) and incubated for the required time at 37° C.
At the time points 24 h and 48 h, different read outs were obtained, including bacterial counts, viability of cells and barrier integrity. […] The plates were incubated for 18 h at 30° C. before the colonies of bacteria were counted.

PAO1 biofilm = assay: In vitro MBEC antibiofilm assay; type: cell-based, P. aeruginosa; conditions: 5 μg/mL and 15 μg/mL TOB; 24 h
Experimental: The pegs on lid of the MBEC Assay® were submerged into the bacterial suspension, with column 12 containing sterile LB broth as a negative control. The plate was incubated at 37° C. on a rotating gyrator for 24 h to form biofilm on the pegs. After 24 h, the peg lid was removed and transferred into another 96-well microtiter plate containing sterile water for 30 seconds before being transferred into a treatment plate. The peg lid in the treatment plate was incubated for 24 h at 37° C. on the rotating gyrator. In the first study, the effect of concentration variation of TOB in MO-LCNPs was determined. […] The respective controls included unloaded formulations MO-LCNP and […] at equivalent concentrations and 0.9% NaCl. […] In the second study, the difference in effect of MO- and […] compared to liposomes containing TOB was determined. […] The final concentration of MO and PHY was 0.25 mg/mL. Liposomes were prepared as described above. In the third study, TOB, AMI and GEN as unformulated solutions and loaded in MO-LCNPs were compared as treatments against PAO1 biofilms in the MBEC Assay®. The concentration of each antibiotic was 6 μg/mL. […] In all four different studies, the treatments were incubated with the PAO1 biofilm grown on the MBEC Assay® on a rotating plate at 37° C. After 24 h incubation, the peg lid was transferred to a fresh plate containing sterilized water to inhibit treatments. […]

In the case of `NC[C@H]1O[C@H](O[C@H]2[C@H](O)[C@@H](O[C@H]3O[C@H](CO)[C@@H](O)[C@H](N)[C@H]3O)[C@H](N)C[C@@H]2N)[C@H](N)C[C@@H]1O` [unformulated TOB, tobramycin], the Papp at 1440 min (in vitro) is reported as 0.81 ×10⁻⁶ cm/s, the P. aeruginosa remaining (PAO1 biofilm on CFBE41o−; 24 h after nebulisation, biofilm of 4×10^8 CFU/mL) is reported as 7.4×10^3 CFU/mL and the P. aeruginosa remaining (PAO1 biofilm on CFBE41o−; 48 h, one nebulised dose) is reported as 1.2×10^3 CFU/mL. The P. aeruginosa remaining (PAO1 biofilm on CFBE41o−; 48 h, two nebulised doses) was 5.4×10^1 CFU/mL and the “reduction of PAO1 load compared to the no treatment control” value (PAO1 biofilm) was 2 log.
